From US20240336657A1, “G-ALPHA-S PEPTIDE INHIBITORS AND USES THEREOF” (The Regents of the University of California, priority 2021, published 2024)
Positions of bridges follow the written chain, without caps; N, C: chain ends. Non-standard residues stand in square brackets, D forms with d. Residues, ends and D or L forms follow the SMILES beside them.

How the values were obtained:
[1] = system: HeLa cells stably expressing HaloTag; assay: Chloroalkane penetration assay (CAPA); format: in vitro ADME, human; settings: chloroalkane-tagged (ct) peptide; HeLa cells; ct-TAMRA chase
Source text: We first tested the cell permeability of GD20, as peptide-based chemical probes often suffer from poor cell permeability. […] In order to quantitatively evaluate the cell permeability of GD20, we used a recently developed HaloTag-based assay known as a chloroalkane penetration assay (CAPA) (Figure S6I) (Peraro et al., 2018). HeLa cells stably expressing HaloTag localized to the mitochondrial outer membrane were pulsed with chloroalkane-tagged molecules (ct-molecule), washed, chased with chloroalkane-tagged TAMRA fluorophore (ct-TAMRA), and finally analyzed by flow cytometry. A lower ct-TAMRA fluorescent signal indicates competition from a higher cytosolic concentration of ct-molecule. The carboxyl terminus of GD20 (G15) was conjugated with a chloroalkane tag to make ct-GD20 (FIG. 23A).
The cell lines used for CAPA were HeLa cell lines, generated by Chenoweth and co-workers, that stably express HaloTag exclusively in the cytosol (Peraro et al., 2018). Cells were seeded in a 96-well plate the day before the experiment at a density of 4×10^4 cells per well. The day of the experiment the media was aspirated, and 100 μL of cyclic peptide dilutions in DMEM were added to the cells. Plate was incubated for 19.5 h at 37° C. with 5% CO2. […] The cells were then trypsinized, quenched with DMEM, resuspended in PBS, and analyzed using a benchtop flow cytometer (CytoFLEX, Beckman).

Gαs = Gαs (Homo sapiens, UniProt P63092); assay: GDP dissociation assay ([3H]GDP); format: biochemical; set-up: made in house; host or cells: Escherichia coli BL21(DE3)
Chain of Gαs (P63092 1-380 isoform P63092-2): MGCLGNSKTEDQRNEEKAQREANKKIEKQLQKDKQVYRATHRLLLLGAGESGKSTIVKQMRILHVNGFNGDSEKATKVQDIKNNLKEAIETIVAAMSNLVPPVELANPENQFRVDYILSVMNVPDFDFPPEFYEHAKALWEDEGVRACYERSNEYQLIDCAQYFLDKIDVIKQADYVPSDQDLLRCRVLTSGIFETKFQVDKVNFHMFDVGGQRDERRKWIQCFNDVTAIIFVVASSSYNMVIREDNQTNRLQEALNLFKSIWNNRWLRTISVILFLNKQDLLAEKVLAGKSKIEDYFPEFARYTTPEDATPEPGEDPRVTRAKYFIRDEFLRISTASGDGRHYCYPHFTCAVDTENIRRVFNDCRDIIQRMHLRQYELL
Description: Gα proteins were diluted to 400 nM in the EDTA buffer (20 mM HEPES 7.5, 150 mM NaCl, 1 mM EDTA-Na 8.0, 2 mM DTT). [^3H]GDP (1 mCi/mL, 25.2 μM) was added to a final concentration of 1.2 μM, followed by cyclic peptides addition. After incubation at 20° C. for 30 minutes, the same volume of assay buffer ([…] HEPES-Na 7.5, 150 mM NaCl, 2 mM MgCl2, and 1 mM GDP) was added to initiate [^3H]GDP dissociation. At various points, […] was removed and mixed with 390 μL of ice-cold wash buffer (20 mM HEPES 7.5, 150 mM NaCl, 20 mM MgCl2). The mixture was immediately filtered through a mixed cellulose membrane (25 mm, 0.22 μm) held by a microanalysis filter holder (EMD Millipore). The membrane was washed by ice-cold wash buffer (500 μL×3), put in a 6-mL plastic vial and air-dried (room temperature 1.5 h). 5 mL of CytoScint-ES Liquid Scintillation Cocktail was added to each vial. After incubation overnight at room temperature, the vial was used for liquid scintillation counting with a LS 6500 Multi-Purpose Scintillation Counter.
The GDP dissociation curves were fitted by the software GraphPad Prism using the following equation to calculate the dissociation rates (koff): […]
in which “Y” is the radioactivity (Counts per minute) of the sample at time “X” (minutes), and Y0 is the calculated radioactivity of the sample at the time point 0.

Gαs S275L = Gαs S275L (Homo sapiens, UniProt P63092, S275L); assay: Adenylyl cyclase activation assay in the presence of Gβ1/γ2; format: biochemical; set-up: made in house; host or cells: Escherichia coli BL21(DE3) (Gαs, VC1, IIC2); Sf9 insect cells (Gβ1/Gγ2); settings: 6.25 μM of GN13
Chain of Gαs S275L (P63092 7-380 isoform P63092-2 S261L limits assumed): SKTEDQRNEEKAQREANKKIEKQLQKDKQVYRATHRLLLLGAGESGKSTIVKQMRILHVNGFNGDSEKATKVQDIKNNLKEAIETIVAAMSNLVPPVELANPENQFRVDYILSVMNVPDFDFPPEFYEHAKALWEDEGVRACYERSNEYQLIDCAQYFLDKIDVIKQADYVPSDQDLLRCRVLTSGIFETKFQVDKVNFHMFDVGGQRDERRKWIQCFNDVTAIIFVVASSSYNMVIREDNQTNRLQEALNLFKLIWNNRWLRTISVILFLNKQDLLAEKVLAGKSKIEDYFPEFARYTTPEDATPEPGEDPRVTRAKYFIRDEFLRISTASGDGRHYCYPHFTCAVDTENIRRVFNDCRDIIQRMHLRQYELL
Description: GN13 inhibition of Gαs proteins at various concentrations (FIG. 18E).
WT Gαs and S275L mutant at a concentration of 8.5 mg/mL (about 190 μM) in 20 mM HEPES 8.0, 150 mM NaCl, 5 mM MgCl2, 1 mM EDTA-Na 8.0 were diluted to a series of concentrations (4 μM, 1.33 μM, 0.44 μM, 0.15 μM, 49.4 nM, 16.5 nM, 5.5 nM, 0 nM) in dilution buffer (1×PBS 7.4, 0.1% BSA, 1 mM EDTA-Na 8.0, 2 mM DTT, 0.1 mM MgCl2) plus 1 mM GppNHp. After incubation at room temperature for 1 hour to allow nucleotide exchange, 2.5 μL of each sample was then mixed with 1 μL of MgCl2 stock (20 mM MgCl2, 1× PBS 7.4, 0.1% BSA) in an OptiPlate-384, White Opaque 384-well Microplate. 2 μL of adenylyl cyclase/Gβγ stock (2 μM VC1, 2 nM IIC2, 150 μM FSK, 1× PBS 7.4, 0.1% BSA, 10 μM Gβ1/γ2(C68S)) was added, followed by addition of 2.5 μL 25 μM GN13 stock in 1× PBS 7.4, 0.1% BSA. […] The cAMP concentrations were measured by the LANCE Ultra cAMP kit. […]
A cAMP standard curve was generated in the same plate using the 50 μM cAMP standard in the kit. […] 10 μL of each diluted sample was mixed with 5 μL of 4× Eu-cAMP tracer and 5 μL of 4× ULight-anti-cAMP in a white, opaque Optiplate-384 microplate, incubated for 1 hour at room temperature, and the time-resolved fluorescence resonance energy transfer (TR-FRET) signals were read on a Spark 20M plate reader. […]

| SMILES | cell permeability (CAPA) [1] | effect on Gαs GDP dissociation rates (koff) (Gαs) | inhibition of adenylyl cyclase activation by Gαs S275L (Gαs S275L) |
| --- | --- | --- | --- |
| CC[C@H](C)[C@@H]1NC(=O)[C@H](CC(C)C)NC(=O)[C@@H](Cc2ccc(O)cc2)NC(=O)CSC[C@@H](C(=O)NCC(N)=O)NC(=O)[C@@H]2CCCN2C(=O)[C@H](CC(C)C)NC(=O)[C@H](CC(N)=O)NC(=O)[C@H](CC(C)C)NC(=O)[C@H](C)NC(=O)[C@H](Cc2c[nH]c3ccccc23)NC(=O)[C@H](CCC(N)=O)NC(=O)[C@H](CCCNC(=N)N)NC(=O)[C@H](Cc2ccccc2)NC(=O)[C@H]([C@@H](C)O)NC1=O [GD20-F10L] ({CH2CO}-[dY]LITFRQWALNLPCG-NH2; thioether N-14) | significantly improved cell penetration |  |  |
| CC[C@H](C)[C@@H]1NC(=O)[C@H](C)NC(=O)[C@H](Cc2ccc(O)cc2)NC(=O)[C@H](C(C)C)NC(=O)[C@H](CO)NC(=O)[C@H](CCC(=O)O)NC(=O)[C@H](Cc2ccccc2)NC(=O)[C@@H](Cc2ccc(O)cc2)NC(=O)CSC[C@@H](C(=O)NCC(N)=O)NC(=O)[C@H](CC(C)C)NC(=O)[C@H]([C@@H](C)O)NC(=O)CNC(=O)[C@H](Cc2c[nH]c3ccccc23)NC1=O [GN13] ({CH2CO}-[dY]FESVYAIWGTLCG-NH2; thioether N-13) |  | only slightly influenced | resistant to GN13 inhibition |
